Experimental data reported in patent publication US11203575B2, “Methhod for producing a crystalline form of 5-amino-2,3-dihydrophthalazine-1,4-dione” (METRIOPHARM AG, priority 2016, dated 2021).

Text: FIG. 5: TG-DSC diagram of crystalline form of 5-amino-2,3-dihydro-1,4-phthalazinedione produced by the method according to the invention. Upper trace: Mass loss determined by TG. Lower trace: Heat flow determined by DSC

Nc1cccc2c(=O)[nH][nH]c(=O)c12 [crystalline form of luminol, 5-amino-2,3-dihydrophthalazine-1,4-dione]
solid state transformation to other forms (TG-DSC, until thermal degradation of the crystalline compound sets in (FIG. 5)): no solid state transformation to other forms is observed
thermal stability up to (simultaneous TG and DSC, solid crystalline form (FIG. 5)): up to 328±1 °C
